Data reported in US20040258676A1, “Stimulation of the activity of an isoform of lysyl oxidase for combating against some pathologies due to an incomplete, absent or disorganized elastogenesis” (COLETICA, priority 2003, published 2004).

What was measured:
elastin (Eln) mRNA = assay: Screening of actives by qualitative RT-PCR, elastin mRNA in aged adult fibroblasts (Example 9); assay type: cell-based; details: actives at 1% (v/v), 24 hours, fibroblasts of normal human skin of aged adults; compared to actin and to negative control
Procedure: (§1) The actives were tested at 1% (v/v) on fibroblasts of normal human skin (originating from healthy <<aged >> adults). The culture was carried out, e.g. in a monolayer on 24-well culture plates, in a defined medium without serum (Fibroblast Basal Medium, Promocell, Germany). The cells were sown, e.g. at 40,000 per cm^2. At the confluence, the cells are placed in contact with the actives advantageously for 24 hours. In parallel, a non-treated control (medium alone) and three positive controls (TGF-β at 1 ng/ml, IL-1α at 50 pg/ml and Phytokine® (Coletica, France) at 2%(v/v)) are advantageously carried out, e.g. on the same culture plate. The TGF-β at 1 ng/ml and the IL-1α at 50 pg/ml were tested beforehand and the stimulation of the synthesis of elastin mRNA induced by these two cytokines at these concentrations was verified by an analysis of the mRNAs, e.g. by quantitative RT-PCR (×10 for TGF-β and x6 for IL-1 alpha). […] The total RNAs are extracted e.g. with the aid of an extraction kit of 96 wells on silica columns and were determined on a 96-well spectrophotometer at 260 nm (purity indicator: protein determination at 280 nm). […] The photographs of the gels were analyzed by image analysis and quantification of the intensity of the bands (Phoretix1D Quantifier, Non Linear Dynamics Ltd, USA). […]

LOX mRNA = assay: Screening of actives by qualitative RT-PCR, LOX mRNA in aged adult fibroblasts (Example 9); assay type: cell-based; details: actives at 1% (v/v), 24 hours, fibroblasts of normal human skin of aged adults; compared to actin and to negative control
Procedure: as §1

elastin mRNA = assay: Verification of positive controls: stimulation of the synthesis of elastin mRNA by quantitative RT-PCR; assay type: cell-based, human; details: TGF-β at 1 ng/ml
Procedure: The TGF-β at 1 ng/ml and the IL-1α at 50 pg/ml were tested beforehand and the stimulation of the synthesis of elastin mRNA induced by these two cytokines at these concentrations was verified by an analysis of the mRNAs, e.g. by quantitative RT-PCR (×10 for TGF-β and x6 for IL-1 alpha). After the time of placing the actives in contact with the cells, e.g. 24 hours, the media are removed and the cells are preserved e.g. by dry freezing at −80° C. after a rinsing in phosphate buffer pH 7.4. The total RNAs are extracted e.g. with the aid of an extraction kit of 96 wells on silica columns and were determined on a 96-well spectrophotometer at 260 nm (purity indicator: protein determination at 280 nm). […]
The actives were tested at 1% (v/v) on human scar tissue skin fibroblasts (surgical recovery of hypertropic scar after caesarean) in premature passage (lower than 5 passages). […] The TGF-β at 1 ng/ml and the IL-1α at 50 pg/ml were tested beforehand and the stimulation of the synthesis of elastin mRNA induced by these two cytokines at these concentrations was verified by an analysis of the mRNAs, e.g. by quantitative RT-PCR (x10 for TGF-β and x6 for IL-1 alpha). […] The total RNAs are extracted e.g. with the aid of an extraction kit of 96 wells on silica columns and were determined on a 96-well spectrophotometer at 260 nm (purity indicator: protein determination at 280 nm). […]

Molecule | Eln Control multiplied by: (elastin (Eln) mRNA) | LOX Control multiplied by: (LOX mRNA) | stimulation of the synthesis of elastin mRNA (elastin mRNA)
OC[C@@H](O)[C@H](O)[C@@H](O)CO [Xylitol] | 0.27 | 3.10 | 
TGF-β |  |  | 10 x
